Results on seven molecules are retold here after patent US9040266B2, “Cell-based systems for production of methyl formate” (The Regents of the University of California, priority 2009, dated 2015).

Data set [1] addresses methyl halide transferase (MHT) (Batis maritima, UniProt Q9ZSZ7). The conditions noted are these: halide ion as substrate; Attieh et al. 1995, Ni and Hager 1999; cited from earlier work.
Data set [2] relates to A. fermentans. The settings on record: accumulation of fermentation products; cited from earlier work.
Data set [3] deals with RAD50Δ mutant. The data set is classed as cell-based, Saccharomyces cerevisiae. The conditions noted are these: RAD50Δ mutant versus W303a, OD600 at 24 hours. An excerpt: (§1) FIG. 11A-D: Methyl iodide production in recombinant S. cerevisiae. FIG. 11A. CH3I production pathway. The B. maritima MHT is expressed with a N-terminal vacuole targeting tag. The […] MHT methylates iodide ions using SAM as a methyl donor. FIG. 11B, CH3I measured in culture headspace over time. Activity on glucose-grown cells is shown. FIG. 11C, CH3I yields in grams per liter of culture per day. Values for the culturable red algae E. muricata are taken from the literature. Yields from B. maritime MHT-expressing E. coli and S. cerevisiae are calculated by comparison to standard curves. FIG. 11D, CH3I toxicity in yeast. Exponential phase cultures were diluted to an OD600 of 0.05 and commercially available CH3I was added. OD600 was measured at 24 hours of growth. The W303a lab strain is shown in filled boxes, the DNA methylation-sensitive RAD50Δ mutant is shown in open boxes.
(§2) The response of the host organism to toxic effects of an overproduced metabolite is important for development of an integrated industrial process. Methyl halides are SN2 methylating agents known to cause cytotoxic lesions in ssDNA and RNA. […]
(§3) Individual colonies were inoculated in YP media with 2% glucose and grown overnight. […] OD600 was measured by spectrometry with YP media used as a blank. […]

Data set [4] concerns S. cerevisiae W303a lab strain. The experiment in a line: Methyl iodide toxicity assay in yeast. Type of data set: cell-based, Saccharomyces cerevisiae. The settings on record: cultures diluted to OD600 0.05, OD600 at 24 hours, FIG. 11D.
Description: as §1, §2, §3

Data set [5] has as its system methyl bromide and methyl iodide production in E. Coli. The data set is described as follows: Methyl halide production by heterologous MHTs expressed in E. coli (Example 8, headspace GC/MS). Type of data set: cell-based. The conditions noted are these: FIG. 7. How it is done:
Nineteen methyl halide transferase genes from various organisms were codon-optimized and introduced into E. Coli. Production of methyl bromide and methyl iodide was determined for each. […] Group II UBA; Cryptococcus neoformans var. neoformans JEC21; Oryza sativa (japonica cultivar-group); Ostreococcus tauri; Dechloromonas aromatica RCB; Coprinopsis cinerea okayama; Robiginitalea bofirmata HTCC2501; Maricaulis maris MCS10; Flavobacteria bacterium BBFL7; Vitis vinifera and; halorhodospira halophila SL1.
For each strain a single colony was picked and grown overnight (10-14 hrs) in 20 mL of LB miller in a 30 mL glass test tube with aeration (a loose cap) at 37 C and 250 rpm shaking. The culture was spun down in a swinging bucket centrifuge for 5 min @ 3000×g. The cells were resuspended in 20mL of appropriate media (10 g/L Tryptone, 5 g/L Yeast Extract, 165 mM NaX [where X=CI, Br, I]) containing 100 uM IPTG inducer. The cells were sealed with rubber stoppers and parafilm and grown at 37 C with 250 rpm shaking for 1.5 hours. Cultures were taken to the GC/MS and 100 uL of headspace gas was sampled and loaded onto the column. The method run was VOIGT.m. The number of counts for the appropriate mass (MeCl, MeBr, MeI) were reported. Cells were always grown in the presence of 30 ug/mL chloramphenicol.
Methyl halide production was measured as described in the previous Examples. […] C. neoformans JEC21 gave the best methyl bromide and methyl iodide production. Leptospirillum gave the best methyl iodide production.

Data set [6] has as its system methyl halide production in E. coli on chloride, bromide and iodide. The data set is described as follows: MHT library screen for methyl halide activity in E. coli (Example 9B). Type of data set: cell-based. The conditions noted are these: library of 89 genes, FIG. 10A.
Description: As described in Example 9A, to screen for MHTs with high activity in a recombinant host, we synthesized all putative MHTs from the NCBI sequence database and assayed methyl halide production in E. colit. […] These genes were computationally codon optimized for E. coli and yeast expression and constructed using automated whole gene DNA synthesis.
Methyl halide production was sampled by analyzing the headspace gas using GC-MS (Supplementary Information).
Bacteria carrying MHT expression vectors were inoculated from freshly streaked plates and grown overnight. Cells were diluted 100-fold into media containing 1 mM IPTG and 100 mM appropriate sodium halide salt. Culture tubes were sealed with a rubber stopper and grown at 37 degrees for 3 hours. Yeast carrying MHT expression vectors were streaked on uracil dropout plates from freezer stocks (15% glycerol) and grown for 48 hours. Individual colonies were inoculated into 2 mL of synthetic complete uracil dropout media and grown overnight at 30 degrees. Cultures were next inoculated into 100 mL fresh synthetic complete uracil dropout media and grown for 24 hours. Cells were spun down and concentrated to high cell density (OD 50) in fresh YP media with 2% glucose and 100 mM sodium iodide salt. 10 mL of this concentrated culture was aliquoted into 14 mL culture tubes and sealed with a rubber stopper. […]

Usually Km stands for the substrate concentration at which the rate is half of its maximum.

Turning to `[Br-].[K+]` [Br^−, bromide], the Km in data set [1] was 18.5 mM.

Regarding `I` [I^−, iodide], the Km in data set [1] is 8.5 mM.

As for `CC(=O)O` [acetate], the A. fermentans growth result in data set [2] is reported as “inhibited”.

For `CCO` [ethanol], the A. fermentans growth result in data set [2] is “inhibited”.

For the molecule `CI` [methyl iodide], the “sensitivity to methyl iodide” value in data set [3] was “increased sensitivity”. Besides, the “level up to which yeast were resistant to deleterious methylating effects of methyl iodide” value in data set [4] was over 5000 µg/mL.

B1: Brassica rapa subsp. chinensis: methyl halide transferase from Brassica rapa subsp. chinensis, SEQ ID NO: 6 (protein, listed as Brassica rapa)
chain: MAEVQQNSAHINGENIIPPEDVAKFLPKTVEEGGWEKCWEDGVTPWDQGRATPLVVHLVESSSLPLGRALVPGCGGGHDVVAMASPERYVVGLDISESALEKAAETYGSSPKAKYFTFVKEDFFTWRPNELFDLIFDYVVFCAIEPETRPAWAKAMYELLKPDGELITLMYPITDHDGGPPYKVAFSTYEDVLVPVGFKAVSIEENPYSIATRKGKEKLARWKKIN
In the case of B1, the “halide specificity of methyl halide production” value in data set [5] was “significant specificity for methyl bromide production”.

B2: B. maritima: methyl halide transferase from Batis maritima, SEQ ID NO: 3 (protein, listed as Batis maritima)
chain: MSTVANIAPVFTGDCKTIPTPEECATFLYKVVNSGGWEKCWVEEVIPWDLGVPTPLVLHLVKNNALPNGKGLVPGCGGGYDVVAMANPERFMVGLDISENALKKARETFSTMPNSSCFSFVKEDVFTWRPEQPFDFIFDYVFFCAIDPKMRPAWGKAMYELLKPDGELITLMYPITNHEGGPPFSVSESEYEKVLVPLGFKQLSLEDYSDLAVEPRKGKEKLARWKKMNN
For B2, the “methyl halide activity on each ion (chloride, bromide, iodide)” value in data set [6] was “highest activity”. In addition, the methyl bromide production entry in data set [5] (165 mM NaX, 100 uM IPTG, 1.5 hours) is “best”. In data set [5], the “halide specificity of methyl halide production” value is listed as “significant specificity for methyl bromide production”.
